Measurements taken from the NIST ThermoML archive (doi:10.1016/j.jct.2013.02.017).

Assay: molar heat capacity at constant pressure
Conditions: 101.33 kPa, relaxation calorimetry - Quantum Design PPMS

O=P([O-])([O-])[O-].[Fe+3] [iron(III) phosphate]
molar heat capacity at constant pressure [J/K/mol]
Conditions	Crystal 1	Crystal 2
1 K	–	0.003782
1.886 K	–	0.04093
1.997 K	–	0.04782
2.181 K	–	0.0617
2.476 K	–	0.09126
2.736 K	–	0.127
3 K	–	0.18
3.028 K	–	0.1804
3.36 K	–	0.2601
3.752 K	–	0.3807
4 K	–	0.4766
4.187 K	–	0.5478
4.659 K	–	0.7673
4.845 K	–	0.8619
5 K	–	0.9387
5.18 K	–	1.047
5.77 K	–	1.391
6 K	–	1.539
6.414 K	–	1.814
6.798 K	–	2.084
7 K	–	2.22
7.132 K	–	2.309
7.933 K	–	2.865
8 K	–	2.913
8.77 K	–	3.466
8.832 K	–	3.516
9 K	–	3.635
10 K	–	4.367
10.05 K	–	4.403
11 K	–	5.121
11.15 K	–	5.235
12 K	–	5.897
12.38 K	–	6.189
12.94 K	–	6.616
13 K	–	6.67
13.73 K	–	7.26
14 K	–	7.443
14.43 K	–	7.762
14.95 K	–	8.294
15 K	–	8.323
15.43 K	–	8.719
15.94 K	–	9.181
16 K	–	9.243
16.43 K	–	9.674
16.95 K	–	10.23
17 K	–	10.28
17.45 K	–	10.8
17.84 K	–	11.2
18 K	–	11.49
18.13 K	–	11.71
18.45 K	–	12.08
18.82 K	–	12.45
19 K	–	12.58
19.22 K	–	12.73
19.66 K	–	13.2
19.99 K	–	13.49
20 K	–	13.57
20.25 K	–	13.97
20.64 K	–	14.43
20.82 K	–	14.73
21.1 K	–	15.1
21.5 K	–	15.55
21.71 K	–	16.04
21.92 K	–	16.34
22.11 K	–	16.68
22.32 K	–	17.08
22.51 K	–	17.48
22.73 K	–	17.86
22.92 K	–	18.38
23.11 K	–	18.7
23.36 K	–	19.34
23.55 K	–	19.72
23.76 K	–	20.25
23.95 K	–	20.84
24.15 K	–	21.42
24.38 K	–	21.93
24.61 K	–	22.61
24.87 K	–	23.08
25 K	23.11	23.11
25.08 K	23.28	–
25.18 K	22.8	–
25.4 K	21.44	–
25.43 K	20.48	–
25.62 K	18.26	–
25.68 K	17.59	–
25.72 K	17.26	–
25.94 K	15.76	–
25.99 K	15.49	–
26.15 K	14.92	–
26.41 K	14.37	–
26.94 K	13.87	–
27.46 K	13.73	–
27.94 K	13.72	–
28.45 K	13.76	–
28.97 K	13.89	–
29.45 K	14.01	–
29.98 K	14.01	–
30 K	14.02	–
30.99 K	14.13	–
32.01 K	14.38	–
33.01 K	14.68	–
34.02 K	15.04	–
35 K	15.41	–
35.05 K	15.43	–
36.05 K	15.83	–
37.06 K	16.23	–
38.07 K	16.64	–
39.08 K	17.07	–
40 K	17.52	–
40.08 K	17.53	–
41.1 K	17.99	–
42.11 K	18.43	–
43.12 K	18.88	–
44.12 K	19.31	–
45 K	19.76	–
45.14 K	19.79	–
46.14 K	20.26	–
47.17 K	20.76	–
48.16 K	21.23	–
49.19 K	21.7	–
50 K	22.04	–
50.22 K	22.15	–
53.7 K	23.85	–
55 K	24.35	–
59.64 K	26.61	–
60 K	26.66	–
65 K	28.97	–
66.28 K	29.55	–
70 K	31.26	–
73.59 K	32.72	–
75 K	33.49	–
80 K	35.67	–
81.69 K	36.3	–
85 K	37.77	–
90 K	39.9	–
90.72 K	40.16	–
95 K	42.03	–
100 K	44.11	–
100.73 K	44.09	–
110 K	48.06	–
110.86 K	47.98	–
120 K	51.77	–
120.94 K	51.73	–
130 K	55.28	–
131.04 K	55.47	–
140 K	58.62	–
141.13 K	58.97	–
150 K	61.85	–
151.25 K	62.31	–
160 K	64.98	–
161.4 K	65.71	–
170 K	68.05	–
171.44 K	68.87	–
180 K	71.06	–
181.6 K	71.84	–
190 K	74.02	–
191.71 K	74.76	–
200 K	76.93	–
201.83 K	77.69	–
210 K	79.79	–
211.94 K	80.42	–
220 K	82.59	–
222.06 K	83.12	–
230 K	85.33	–
232.15 K	85.84	–
240 K	88	–
242.24 K	88.09	–
250 K	90.6	–
252.28 K	90.69	–
260 K	93.11	–
262.36 K	92.91	–
270 K	95.55	–
272.53 K	95.97	–
273.15 K	96.3	–
280 K	97.9	–
282.61 K	99.14	–
290 K	100.17	–
292.62 K	101.41	–
298.15 K	101.96	–
300 K	102.35	–
302.73 K	102.84	–
